Test results: patent US10393751B2, “Specific peptide binders to proteins identified via systematic discovery, maturation and extension process” (Roche […], Inc., priority 2015, dated 2019)

Target: streptavidin (Streptomyces avidinii, UniProt P22629)
Experiment: Surface Plasmon Resonance (Biacore X100) of synthesized peptides on immobilized streptavidin
Assay type: binding
Conditions: for KD (equilibrium dissociation constant, kd/ka) / Kd / kon / koff: SPR; for kon: read-out: Ka (association rate constant); for koff: read-out: Kd (dissociation rate constant)
Excerpt: A selection of streptavidin peptide binders listed in Table 15 were synthesized using standard column-based synthesis techniques by UW Biotechnology center (Madison, Wis.) or by Peptide2.0 (Chantilly, Va.) at 98-99% purity. Strep-tag II peptide NH2-SAWSHPQFEK-COOH was purchased from IBA GmbH (Goettingen, Germany). Synthesized peptides were then characterized by Surface Plasmon Resonance (SPR) to identify binding characteristics including the association rate constant (ks), dissociation rate constant (kd), and equilibrium dissociation rate constant (kd/ka=KD). In one aspect, SPR experiments were performed by using Biacore X100 instrument (GE Healthcare). Preliminarily, 60 μl of 100 μg/ml streptavidin in 10 mM Na-acetate, pH5.0 was immobilized to flow cell 2 (Fc2) of a sensor chip CM5 (GE Healthcare) using Amine Coupling Kit (GE Healthcare) at 20° C. for 6 min. Peptide stock solutions were prepared at 5 or 10 mM concentration in water and diluted in HBS-EP+ (GE Healthcare) buffer before SPR experiments. Peptide binding was performed in a multiple kinetics mode using HBS-EP+ as a running buffer and 0.2 M NaCl, 10 mM NaOH or 10 mM HCl-glycine, […] as regeneration buffer. Binding kinetics parameters were calculated with Biacore X100 software.

[1] = streptavidin immobilized on CM5 chip, HBS-EP+ running buffer
[2] = KD (equilibrium dissociation constant, kd/ka), streptavidin immobilized on CM5 chip, HBS-EP+ running buffer
[3] = KD of peptide-streptavidin complex, restated in text from Table 15

streptavidin, sequence (P22629 25-183, species assumed): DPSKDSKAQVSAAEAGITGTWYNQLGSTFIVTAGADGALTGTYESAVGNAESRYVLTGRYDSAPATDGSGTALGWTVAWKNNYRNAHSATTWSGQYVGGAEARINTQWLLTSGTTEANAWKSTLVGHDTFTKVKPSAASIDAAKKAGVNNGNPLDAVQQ

GNSFDDWLASKG [NH2-GNSFDDWLASKG-amide]
KD (equilibrium dissociation constant, kd/ka) [1]: Irreversible | binding as compared with the parent peptide NSFDDWLAKGG (result in words): irreversible binding

H-ADYLAEYHGG-OH [NH2-ADYLAEYHGG-COOH]
Kd [2]: 96 ± 5 µM | Kd [3]: ~96 µM

H-AFDYLAQYHGG-NH2 [NH2-AFDYLAQYHGG-amide]
kon [1]: 23300 M⁻¹ s⁻¹ | koff [1]: 0.0354 s⁻¹

H-AFPDYLAEYHGG-NH2 [NH2-AFPDYLAEYHGG-amide]
KD (equilibrium dissociation constant, kd/ka) [1]: 0.043 µM | kon [1]: 30100 M⁻¹ s⁻¹ | koff [1]: 0.00128 s⁻¹ | KD rank among the streptavidin peptide binders in Table 15 (result in words): lowest KD

H-DPAPAWAHGG-OH [NH2-DPAPAWAHGG-COOH]
Kd [2]: > 500 µM

H-EWVHPQFEQKAK-NH2 [NH2-EWVHPQFEQKAK-amide]
KD as compared with the Strep-Tag II peptide (SEQ ID NO:233) (result in words): decreased KD

H-RDPAPAWAHGGG-NH2 [NH2-RDPAPAWAHGGG-amide]
Kd [3]: ~4.66 µM | KD (equilibrium dissociation constant, kd/ka) [1]: 4.66 µM | kon [1]: 14900 M⁻¹ s⁻¹ | change in KD as compared with the parent peptide (parent peptide DPAPAWAHGG (SEQ ID NO:242)): ≥ 100 fold

H-WTHPQFEQK-OH [NH2-WTHPQFEQK-COOH]
KD as compared with the Strep-Tag II peptide (SEQ ID NO:233) (result in words): decreased KD

H-WTHPQFEQPKA-NH2 [NH2-WTHPQFEQPKA-amide]
KD as compared with the Strep-Tag II peptide (SEQ ID NO:233) (result in words): decreased KD
